Test results as given in patent US10450317B2, “Notch pathway signaling inhibitor compounds” (Eli Lilly and Company, priority 2015, dated 2019).
pIC50: −log10 of the molar value. Marks after values point to notes of the source that are not given here.

What was measured:
hAtoh1 = assay: Induction of hAtoh1 expression in human tumor cell line LS174T (qPCR); format: cell-based; settings: LS174T cells, 72 hours, read-out: IC50 (relative expression of hAtoh1)
Method: To evaluate potency of Compounds 1, Isomer 2 and 2, Isomer 2 in their ability to induce hAtoh1 expression, a human tumor cell line is utilized. Endogenous Notch signaling regulation for this cell line is similar to that in the inner ear. Generally, this assay is carried out following principles in Kazanjian et al., Gastroenterology, 2010, 139(3): 918-928 and Supplementary Materials and Methods.
Generally, standard cell culture techniques are used. Low passage human colorectal adenocarcinoma cell line LS174T (ATCC CL-188) maintained in Growth Medium (MEM 10% FBS) is plated 10,000 cells in 100 μl Assay Medium (MEM 1% FBS) per well into 96-well tissue culture treated plates. […]
To quantify the expression of hair cell markers from the […], qPCR probes to detect hAtoh1 or TBP expression in a single two-color multiplex reaction is carried out. […] Relative gene expression between treatment groups is analyzed using the ΔΔCT method and replicate measurements are averaged.
Four separate assays are carried out to obtain IC50 values for each test compound. The IC50 value is determined by fitting concentration response data to “log(antagonist) vs. response (three parameter)” model using GraphPad Prism® software for 12 doses across a concentration range of 4.0E-11 to 1.0E-6 M with 108 total points analyzed for each compound.

[1] = test system: outer hair cells in organ of Corti explants; assay: Organ of Corti explant assay, immuno-staining and count of outer hair cells; format: cell-based, mice; settings: explants cultured four days at 1 μM; relative to negative control-treated samples
Method: The bulla and surrounding tissue from the petrous portion of the temporal bone are removed from 1 to 4 day-old postnatal mice (transgenic strain: Atoh1-driven nGFP; Lumpkin E A, et al., Gene Expr Patterns, 2003, (36):389-95) of both sexes. Organs of Corti are dissected in Hanks solution, the spiral ligament is removed and the explants are placed on cover slips coated with poly-L-ornithine (0.01%, Sigma) and laminin ([…], Becton Dickinson) to obtain a preparation with a flat cochlear surface. Each cochlear explant is then placed in a single well of a 24 well plate (Falcon) and cultured in DMEM (Invitrogen) with 5% fetal bovine serum, 5% horse serum, and penicillin-streptomycin (LifeTechnologies). Experimental compounds are added with medium on Day 0 and replaced every 2-3 days. All cultures are maintained in a 5% CO2 humidified incubator at 37° C.
Following the explant culture, tissues are fixed in the 24 well plate with 200 μl Cytofix/Cytoperm (BD) for 30 min, rinsed with PBS containing TritonX100 (PBST), and stained with 200 μl of primary antibody solution, consisting of 4% normal donkey serum in PBST with goat anti-GFP (1:2500; AbCAM, ab5450) and rabbit anti-myosinVIIa (1:1000; Proteus Bioscience #25-6790) for 1 hour. […] Blinded cell counts are measured in five separate experiments. […]

[2] = test system: hair cell markers Atoh1, Pou4f3, Myo7A in gentamicin-damaged organ of Corti explants; assay: Organ of Corti explant, gene expression analysis after ototoxic (gentamicin) damage; format: cell-based, mice; settings: 5 μM after gentamicin (100 μM) damage, n = 11
Method: A variation of the organ of Corti organotypic explant culture is used to model hair cell regeneration in response to subsequent compound treatment after ototoxic damage. This damage model is carried out according to the method described in Korrapati et al., PLOSOne, 2013, 8(8), e73276 where a 95% reduction in mid-apical hair cells was reported. On Day 0, to damage and selectively kill hair cells within the organ of Corti explant, aminoglycoside treatment (gentamicin (100 μM)) is added for 18-24 hours. On Day 1, gentamicin is removed and treatment with Compound 1, Isomer 2 and Compound 2, Isomer 2 at 5 μM began. Explant culture continues for 4 days total at which point the culture is prepared for the qRT-PCR protocol described above. Visible confirmation of gentamicin-induced damage is easily observed between cultures treated with negative control compounds. However, quantitative measurement for the response to Compound 1, Isomer 2 and Compound 2, Isomer 2 treatment following ototoxic damage obtained by qRT-PCR measured increases in gene expression for prosensory hair cell markers Atoh1 and Pou4f3 and the hair cell marker Myo7A.
Data represent the percent increase in gene expression relative to negative control-treated samples with the gentamicin-induced hair cell damage. (*, significant difference from negative control, p<0.05)

Row | pIC50 (hAtoh1) | SMILES | Percent Increase in hair cells [1] [%] | % Induction Over Control-treated Damaged Organ of Corti, Atoh1 (Mean ± SEM) [2] | % Induction Over Control-treated Damaged Organ of Corti, Myo7A (Mean ± SEM) [2] | % Induction Over Control-treated Damaged Organ of Corti, Pou4f3 (Mean ± SEM) [2]
1 | 7.78 | COc1ccc2c(c1)N1CCC(C)(C)C1=CC(=O)C2NC(=O)[C@H](C)NC(=O)CCC(F)(F)F (single isomer, unassigned) [Compound 1, Isomer 2] | 14.15 ± 1.9 | 242 ± 16; % | 102 ± 18; 0.0522% | 114 ± 25; <0.05* %
2 | 7.26 | C[C@H](NC(=O)CCC(F)(F)F)C(=O)NC1C(=O)C=C2N(CCC2(C)C)c2ncccc21 (single isomer, unassigned) [Compound 2, Isomer 2] | 17.26 ± 1.2 | 169 ± 24; <0.05* % | 52 ± 15; not signif. % | 28 ± 11; 0.0633%
